Reference: patent US20250179017A1 (GUANGDONG NEWOPP BIOPHARMACEUTICALS CO., LTD., priority 2022, published 2025)

How the values were obtained:
[1] = biological target: T1, human EP4 (EP4R) (Homo sapiens, UniProt P35408); assay: EP4 antagonist assay (HEK-293 CNG membrane potential cAMP assay / 293T SEAP reporter assay, PGE2-stimulated); type: cell-based; conditions: EP4 antagonist activity; concentration for inhibition of signal compared to DMSO
T1 construct: Cayman Chemical (Human EP4 Reporter Assay Kit)
Source text: 1. The HEK-293 CNG (Cyclic Nucleotide Gated) cell line expressing a modified CNG channel that leads to cell membrane depolarization in response to elevated intracellular cAMP levels, which can be measured using a fluorescent membrane potential dye, was engineered to express human EP2 (PTGER2) or EP4 (EP4R). The resulting cell line ACTOne™ PTGER2 or ACTOne™ EP4R as well as the fluorescent membrane potential dye were purchased from eEnzyme (Gaithersburg, MD, US) and used in this assay. Briefly, cells were plated at 1.2×10^4 cells/well in 20 μL DMEM supplemented with 2% Fetal Bovine Serum (FBS, VWR International), 1x Penicillin/Streptomycin (GenClone), 0.2 μg/mL puromycin (InvivoGen) and 50 μg/mL G418 (InvivoGen) on a 384 well plate (Greiner). The next day, cells were dye-loaded with 20 μL/well of 1x Dye-loading solution (eENZYME) following the manufacturer's instruction. After 2 hours of incubation at room temperature (RT) in the dark, a pre-read was made to obtain the background signals using CLARIOstar plate reader (BMG LABTECH, Germany) with the following filter settings: excitation=530/20 nm, emission=590/20 nm. Next, a serial dilution of compound (plus a DMSO control) were added to the plate (5 μL/well) and the reaction was incubated at RT for 15 min before adding 5 μL of PGE2 to every well for a final concentration of 5 nM. All wells were duplicated. The plate was then further incubated at RT for 30 min prior to a final read with the same machine settings. Background-subtracted signals were used to calculate IC50 values.
2. Human EP2 and EP4 Reporter Assay Kits were purchased from Cayman Chemical (Ann Arbor, MI, USA). The assay was performed following the provided User Manual. Briefly, a reverse transfection was performed by seeding 6.0×10^4 of 293T cells (ATCC) to each well of the provided Strip Plate coated with a proprietary transfection complex containing DNA constructs for expressing human EP2 or EP4 and a cAMP response element regulated secreted alkaline phosphatase (SEAP) reporter, in 200 μL DMEM supplemented with 2% FBS and incubated for 20-24 hours at 37° C. with 5% CO2. After the incubation, the culture medium was carefully removed, and the cells were replenished with 150 μL pre-warmed serum-free medium. PGE2 and test compounds were prepared together at 4x the desired final concentration, and 50 μL was added to each assigned well with the final concentration of 13 nM and 2 nM PGE2 for EP2 and EP4 assay, respectively. After 6-8 hours of incubation, 10 μL media from each well was transferred to corresponding well of a new plate, which was then sealed and incubated at 65° C. for 30 min. The plate was then cooled down to RT and 50 μL SEAP substrate was added to each well. Luminescence signal was measured using a CLARIOstar plate reader.
The IC50 value was determined as the concentration for […] inhibition of signal compared to DMSO (A: IC50≤100 nM; B: IC50 between 100 nM and 1,000 nM; C: IC50≥1,000 nM).

[2] = biological target: T2, human EP2 (PTGER2) (Homo sapiens, UniProt P43116); assay: EP2 antagonist assay (HEK-293 CNG membrane potential cAMP assay / 293T SEAP reporter assay, PGE2-stimulated); type: cell-based; conditions: EP2 antagonist activity; concentration for 50% inhibition of signal compared to DMSO
T2 construct: Cayman Chemical (Human EP2 Reporter Assay Kit)
How it was run: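 Two formats. In a CRE-SEAP reporter assay, reverse-transfected 293T cells received compound with PGE2 (13 nM final) for 6-8 h, then luminescence was read. In the ACTOne CNG format, HEK-293 cells were preincubated with compound for 15 min at RT, stimulated with 5 nM PGE2 for 30 min, and read by membrane-potential dye fluorescence. IC50 was taken versus DMSO.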

T2 sequence (P43116 whole entry): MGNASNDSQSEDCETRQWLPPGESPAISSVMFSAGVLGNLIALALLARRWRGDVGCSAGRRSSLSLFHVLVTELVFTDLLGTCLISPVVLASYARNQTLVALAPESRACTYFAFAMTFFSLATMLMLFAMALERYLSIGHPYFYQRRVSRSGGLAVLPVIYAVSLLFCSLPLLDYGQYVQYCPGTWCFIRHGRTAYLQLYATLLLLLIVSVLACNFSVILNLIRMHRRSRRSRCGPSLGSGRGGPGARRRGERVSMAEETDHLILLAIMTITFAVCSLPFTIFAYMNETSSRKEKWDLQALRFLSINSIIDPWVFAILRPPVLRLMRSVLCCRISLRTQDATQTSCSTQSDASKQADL
T1 sequence (P35408 whole entry): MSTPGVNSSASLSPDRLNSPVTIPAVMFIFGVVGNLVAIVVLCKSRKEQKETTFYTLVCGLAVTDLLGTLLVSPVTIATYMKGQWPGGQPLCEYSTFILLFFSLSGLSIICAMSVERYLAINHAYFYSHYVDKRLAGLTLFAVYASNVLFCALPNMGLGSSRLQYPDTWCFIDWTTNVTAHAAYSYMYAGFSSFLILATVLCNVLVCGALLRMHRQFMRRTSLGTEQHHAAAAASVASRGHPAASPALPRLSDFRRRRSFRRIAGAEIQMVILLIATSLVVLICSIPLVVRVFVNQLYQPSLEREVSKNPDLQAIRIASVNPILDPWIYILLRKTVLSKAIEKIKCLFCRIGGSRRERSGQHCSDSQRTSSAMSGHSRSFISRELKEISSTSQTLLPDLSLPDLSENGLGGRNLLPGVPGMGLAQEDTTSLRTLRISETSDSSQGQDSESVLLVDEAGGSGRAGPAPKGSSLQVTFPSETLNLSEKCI

Structure (SMILES)	IC50 [1] [µM]	IC50 [2] [µM]
O=C(O)c1ccc(CNC(=O)c2cc(-c3ccccc3)cc3ccn(Cc4ccc5ccccc5n4)c23)cc1 [Example 141, 4-((5-phenyl-1-(quinolin-2-ylmethyl)-1H-indole-7-carboxamido)methyl)benzoic acid]	≤ 0.1	< 0.1
C[C@H](NC(=O)c1cc(-c2ccc(F)cc2)cc2cnn(Cc3ccc4ccccc4c3)c12)c1ccc(C(=O)O)cc1 [Example 168, (S)-4-(1-(5-(4-fluorophenyl)-1-(naphthalen-2-ylmethyl)-1H-indazole-7-carboxamido)ethyl)benzoic acid]	≤ 0.1	< 0.1
C[C@H](NC(=O)c1cc(-c2ccc(F)cc2)cc2cnn(Cc3cccc(C(F)(F)F)c3)c12)c1ccc(C(=O)O)cc1 [Example 134, (S)-4-(1-(5-(4-fluorophenyl)-1-(3-(trifluoromethyl)benzyl)-1H-indazole-7-carboxamido)ethyl)benzoic acid]	≤ 0.1	< 0.1
C[C@H](NC(=O)c1cc(-c2ccccc2)cc2ccn(Cc3ccc(-c4ccccc4)cc3)c12)c1ccc(C(=O)O)cc1 [Example 150, (S)-4-(1-(1-([1,1′-biphenyl]-4-ylmethyl)-5-phenyl-1H-indole-7-carboxamido)ethyl)benzoic acid]	≤ 0.1	< 0.1
C[C@H](NC(=O)c1cc(-c2ccc(F)cc2)cc2ccn(Cc3ccc(C(F)(F)F)cc3)c12)c1ccc(C(=O)O)cc1 [Example 50, (S)-4-(1-(5-(4-fluorophenyl)-1-(4-(trifluoromethyl)benzyl)-1H-indole-7-carboxamido)ethyl) benzoic acid]	≤ 0.1	< 0.1
O=C(O)c1ccc(CNC(=O)c2cc(-c3ccc(F)cc3)cc3cnn(Cc4ccc(-c5ccccc5)cc4)c23)cc1 [Example 191, 4-((1-([1,1′-biphenyl]-4-ylmethyl)-5-(4-fluorophenyl)-1H-indazole-7-carboxamido)methyl)benzoic acid]	≤ 0.1	< 0.1
O=C(O)c1ccc(CNC(=O)c2cc(-c3ccc(F)cc3)cc3cnn(Cc4ccc(C(F)(F)F)cc4)c23)cc1 [Example 96, 4-((5-(4-fluorophenyl)-1-(4-(trifluoromethyl)benzyl)-1H-indazole-7-carboxamido)methyl)benzoic acid]	≤ 0.1	< 0.1
O=C(O)c1ccc(CNC(=O)c2ccc(Nc3ccccc3)c3ccn(Cc4ccc(C(F)(F)F)cc4)c23)cc1 [Example 57, 4-((4-(phenylamino)-1-(4-(trifluoromethyl)benzyl)-1H-indole-7-carboxamido)methyl)benzoic acid]	0.1 to 1	< 0.1
C[C@H](NC(=O)c1cc(-c2cc(F)cc(F)c2)cc2cnn(Cc3cccc(C(F)(F)F)c3)c12)c1ccc(C(=O)O)cc1 [Example 136, (S)-4-(1-(5-(3,5-difluorophenyl)-1-(3-(trifluoromethyl)benzyl)-1H-indazole-7-carboxamido)ethyl)benzoic acid]	≤ 0.1	< 0.1
C[C@H](NC(=O)c1cc(-c2ccccc2)cc2ccn(Cc3ccc(C(F)(F)F)cc3)c12)c1ccc(C(=O)O)cc1 [Example 51, (S)-4-(1-(5-phenyl-1-(4-(trifluoromethyl)benzyl)-1H-indole-7-carboxamido)ethyl) benzoic acid]	≤ 0.1	< 0.1
O=C(O)c1ccc(CNC(=O)c2ccc(Nc3cc(F)cc(F)c3)c3ccn(Cc4ccc(C(F)(F)F)cc4)c23)cc1 [Example 69, 4-((4-((3,5-difluorophenyl)amino)-1-(4-(trifluoromethyl)benzyl)-1H-indole-7-carboxamido)methyl)benzoic acid]	0.1 to 1	< 0.1
C[C@H](NC(=O)c1cc(-c2ccccc2)cc2cnn(Cc3cccc(C(F)(F)F)c3)c12)[C@H]1CC[C@H](C(=O)O)CC1 [Example 223, (1S,4r)-4-((S)-1-(5-phenyl-1-(3-(trifluoromethyl)benzyl)-1H-indazole-7-carboxamido)ethyl)cyclohexane-1-carboxylic acid]	≤ 0.1	≥ 1
O=C(O)c1ccc(CNC(=O)c2ccc(Nc3ccccc3)c3ccn(Cc4ccc(-c5ccccc5)cc4)c23)cc1 [Example 154, 4-((1-([1,1′-biphenyl]-4-ylmethyl)-4-(phenylamino)-1H-indole-7-carboxamido)methyl) benzoic acid]	≤ 0.1	< 0.1
O=C(O)c1ccc(CNC(=O)c2cc(-c3ccccc3)cc3cnn(Cc4ccc(-c5ccc(F)cc5)cc4)c23)cc1 [Example 184, 4-((1-((4′-fluoro-[1,1′-biphenyl]-4-yl)methyl)-5-phenyl-1H-indazole-7-carboxamido)methyl)benzoic acid]	≤ 0.1	< 0.1
O=C(O)c1ccc(CNC(=O)c2ccc(Nc3ccccc3)c3ccn(Cc4ccc5ccccc5c4)c23)cc1 [Example 156, 4-((1-(naphthalen-2-ylmethyl)-4-(phenylamino)-1H-indole-7-carboxamido)methyl)benzoic acid]	≤ 0.1	< 0.1
O=C(O)c1ccc(CNC(=O)c2cc(-c3ccc(F)cc3)cc3cnn(Cc4ccc5ccccc5c4)c23)cc1 [Example 166, 4-((5-(4-fluorophenyl)-1-(naphthalen-2-ylmethyl)-1H-indazole-7-carboxamido)methyl)benzoic acid]	≤ 0.1	< 0.1
O=C(O)c1ccc(CNC(=O)c2cc(-c3ccc(F)cc3)cc3nnn(Cc4ccc(C(F)(F)F)cc4)c23)cc1 [Example 175]	≤ 0.1	< 0.1

Continued, values first:

IC50 [1] [µM]	IC50 [2] [µM]	Structure (SMILES)
≤ 0.1	< 0.1	O=C(O)c1ccc(CNC(=O)c2cc(-c3ccncc3)cc3ccn(Cc4ccc(C(F)(F)F)cc4)c23)cc1 [Example 80, 4-((5-(pyridin-4-yl)-1-(4-(trifluoromethyl)benzyl)-1H-indole-7-carboxamido)methyl)benzoic acid]
≤ 0.1	< 0.1	N#Cc1cccc(-c2cc(C(=O)NCc3ccc(C(=O)O)cc3)c3c(ccn3Cc3ccc(C(F)(F)F)cc3)c2)c1 [Example 7, 4-((5-(3-cyanophenyl)-1-(4-(trifluoromethyl)benzyl)-1H-indole-7-carboxamido)methyl)benzoic acid]
≤ 0.1	< 0.1	O=C(O)c1ccc(CNC(=O)c2cc(-c3ccc(F)cc3)cc3ccn(Cc4cccc(C(F)(F)F)c4)c23)cc1 [Example 124, 4-((5-(4-fluorophenyl)-1-(3-(trifluoromethyl)benzyl)-1H-indole-7-carboxamido)methyl)benzoic acid]
≤ 0.1	< 0.1	O=C(O)c1ccc(CNC(=O)c2cc(-c3ccc(F)cc3)cc3ccn(Cc4ccc(C(F)(F)F)cc4)c23)cc1 [Example 1, 4-((5-(4-fluorophenyl)-1-(4-(trifluoromethyl)benzyl)-1H-indole-7-carboxamido)methyl)benzoic acid]
≤ 0.1	< 0.1	COc1cccc(-c2cc(C(=O)NCc3ccc(C(=O)O)cc3)c3c(ccn3Cc3ccc(C(F)(F)F)cc3)c2)c1 [Example 76, 4-((5-(3-methoxyphenyl)-1-(4-(trifluoromethyl)benzyl)-1H-indole-7-carboxamido)methyl)benzoic acid]
≤ 0.1	< 0.1	O=C(O)c1ccc(CNC(=O)c2cc(-c3ccccc3)cc3ccn(Cc4ccc(C(F)(F)F)cc4)c23)cc1 [Example 2, 4-((5-phenyl-1-(4-(trifluoromethyl)benzyl)-1H-indole-7-carboxamido)methyl)benzoic acid]
≤ 0.1	< 0.1	O=C(O)c1ccc(CNC(=O)c2cc(-c3cc(F)cc(F)c3)cc3ccn(Cc4cccc(Cl)c4)c23)cc1 [Example 106, 4-((1-(3-chlorobenzyl)-5-(3,5-difluorophenyl)-1H-indole-7-carboxamido)methyl)benzoic acid]
